Measurements published in patent US11299518B2, “Fusion respiratory syncytial virus inhibitors and use thereof” (priority 2016, dated 2022).
Bridge positions count the residues as written; N and C are the ends. Square brackets hold non-standard residues; d marks the D form. Peptide text beside a SMILES is read from it. Gly(cPent) = N[C@H](C(=O)O)C1CCCC1; tBuAla = CC(C)(C)C[C@H](N)C(=O)O; Cha = N[C@@H](CC1CCCCC1)C(=O)O; Chg = N[C@H](C(=O)O)C1CCCCC1; R5 = C=CCCC[C@@](C)(N)C(=O)O; S5 = C=CCCC[C@](C)(N)C(=O)O

Experiments:
RSV-mCherry = type: cell-based, HRSV
Method: The inhibitory activity of the peptides of the invention was assessed in HEp-2 cells as described below:
A mCherry-expressing virus recently developed (Rameix-Welti et al., 2014, Nat. Commun., 5:5104) was used to avoid the cumbersome manipulations required with the GFP-expressing virus.
HEp-2 cells were seeded at 5×10^4 cells per well in 96 wells plate the day before the infection. Peptides were 2-fold serially diluted in DMSO (11 dilutions), then further diluted in MEM medium and pre-incubated for 15-20 minutes with 0.2 MOI of RSV-mCherry (Rameix-Welti et al., 2014, supra). Following the washing of Hep-2 cells with MEM without phenol red medium, the cells were incubated with the virus/peptide mixtures for a period of 1 h30-2 h. The cells were washed and further incubated in MEM media containing fetal bovine serum and the same concentration of peptide that was used during the infection step. Plates were incubated 48 h at 37° C. and the mCherry fluorescence was measured using a spectrofluorometer (Tecan infinite M200PRO) with excitation and emission wavelengths of 580 and 620 nm, respectively (expressed in relative fluorescence units RFU). Non-infected HEp-2 cells were used as standards for fluorescence background levels. Each experiment was performed in duplicate and repeated at least twice.

circular dichroism = details: 10 mM phosphate; pH 7.5; 25 °C; 50 uM
[1] = CD spectroscopy, percentage of helicity; type: physicochemical; details: CD at 222 nm, 10 mM phosphate buffer pH 7.5, 50 μM peptide, 25° C.
Method: The secondary structure of the peptides was then characterized by circular dichroism (DC) as described below.
The circular dichroism spectra were acquired on a Jasco J-810 and on a Chirascan spectropolarimeter. The samples were prepared in 10 mM phosphate buffer, pH 7.5, at a peptide concentration of 50 μM. Data were recorded at 25° C. by stepscan from 180 nm to 260 nm in a 0.1 cm pathlength quartz cell using 0.2 nm wavelength increments, 1 nm bandwidth and a response time of 0.5 sec. Each spectrum was an average of three measurements and was subtracted from buffer baseline. The data were converted to per residue molar ellipticity units [θ] (deg·cm2·dmol−1·residue−1) and smoothed using the Igor software. The percentage of helicity was calculated as it follows:
[formula] whereby CD222=molar ellipticity at 222 nm in [mdeg], N=number of amino acids in the peptide and C=peptide molar concentration [mol/l].

Row | Compound | inhibitory activity in HEp-2 cells (RSV-mCherry; RSV-mCherry) | helicity (circular dichroism) | % helicity [1] | EC50 (RSV-mCherry; HEp-2 cells, 0.2 MOI RSV-mCherry, 48 h)
1 | CC[C@H](C)[C@H](NC(=O)[C@H](Cc1ccccc1)NC(=O)[C@H](C)NC(=O)[C@H](CC(C)C)NC(=O)[C@H](CO)NC(=O)[C@H](CCC(N)=O)NC(=O)[C@H](CCC(=O)O)NC(C)=O)C(=O)N[C@@H](CCCNC(=N)N)C(=O)N[C@@H](CCCCN)C(=O)N[C@@H](CO)C(=O)N[C@@H](CC(=O)O)C(=O)N[C@@]1(C)CCCC=CCCC[C@@](C)(C(=O)N[C@H](C(N)=O)C(C)C)NC(=O)[C@H](Cc2c[nH]cn2)NC(=O)[C@H](CC(C)C)NC(=O)[C@H](CC(C)C)NC1=O [Peptide 3c, reference compound] (Ac-EQSLAFIRKSD[S5]LLH[S5]V-NH2; staple 12-16) | inactive |  |  | 
2 | CC[C@H](C)[C@@H]1NC(=O)[C@H](Cc2ccccc2)NC(=O)[C@@](C)(NC(=O)[C@@H](NC(=O)[C@H](CO)NC(=O)[C@]2(C)CCCC=CCCC[C@@](C)(NC(=O)[C@H](CCC(=O)O)NC(C)=O)C(=O)N[C@@H]([C@@H](C)CC)C(=O)N[C@@H](CC(N)=O)C(=O)N2)C2CCCC2)CCCC=CCCC[C@@](C)(C(=O)N[C@@H](CO)C(=O)N[C@@H](CC(=O)O)C(=O)N[C@@H](CCC(=O)O)C(=O)N[C@@H](CC(C)C)C(=O)N[C@@H](CC(C)C)C(=O)N[C@@H](Cc2c[nH]cn2)C(=O)N[C@@H](CC(N)=O)C(=O)N[C@H](C(N)=O)C(C)C)NC(=O)[C@H](CCCNC(=N)N)NC1=O [Peptide 4ca-var2] (Ac-E[R5]IN[S5]S[Gly(cPent)][S5]FIR[S5]SDELLHNV-NH2; staple 2-5, 8-12) |  | 90.3% | 90.3% | 
3 | CC[C@H](C)[C@@H]1NC(=O)[C@H](Cc2ccccc2)NC(=O)[C@@](C)(NC(=O)[C@H](CC(C)C)NC(=O)[C@H](CO)NC(=O)[C@]2(C)CCCC=CCCC[C@@](C)(NC(=O)[C@H](CCC(=O)O)NC(C)=O)C(=O)N[C@@H]([C@@H](C)CC)C(=O)N[C@@H](CCCCN)C(=O)N2)CCCC=CCCC[C@@](C)(C(=O)N[C@@H](CO)C(=O)N[C@@H](CC(=O)O)C(=O)N[C@@H](CCC(=O)O)C(=O)N[C@@H](CC(C)(C)C)C(=O)N[C@@H](CC(C)C)C(=O)N[C@@H](Cc2c[nH]cn2)C(=O)N[C@@H](CC(N)=O)C(=O)N[C@H](C(N)=O)C(C)C)NC(=O)[C@H](CCCNC(=N)N)NC1=O [Peptide 4ca-var5, E Xaa2 IK Xaa5 SL Xaa8 FIR Xaa12 SDE Xaa16LHNV] (Ac-E[R5]IK[S5]SL[S5]FIR[S5]SDE[tBuAla]LHNV-NH2; staple 2-5, 8-12) |  | 82.3% | 82.3% | 
4 | CC[C@H](C)[C@@H]1NC(=O)[C@H](Cc2ccccc2)NC(=O)[C@@](C)(NC(=O)[C@H](CC(C)C)NC(=O)[C@H](CO)NC(=O)[C@]2(C)CCCC=CCCC[C@@](C)(NC(=O)[C@H](CCC(=O)O)NC(C)=O)C(=O)N[C@@H]([C@@H](C)CC)C(=O)N[C@@H](CC(N)=O)C(=O)N2)CCCC=CCCC[C@@](C)(C(=O)N[C@@H](CO)C(=O)N[C@@H](CC(=O)O)C(=O)N[C@@H](CCC(=O)O)C(=O)N[C@@H](CC(C)(C)C)C(=O)N[C@@H](CC(C)C)C(=O)N[C@@H](Cc2c[nH]cn2)C(=O)N[C@@H](CC(N)=O)C(=O)N[C@H](C(N)=O)C(C)C)NC(=O)[C@H](CCCNC(=N)N)NC1=O [Peptide 4ca-var4, E Xaa2 IN Xaa5 SL Xaa8 FIR Xaa12 SDE Xaa16LHNV] (Ac-E[R5]IN[S5]SL[S5]FIR[S5]SDE[tBuAla]LHNV-NH2; staple 2-5, 8-12) |  | 98.4% | 98.4% | 0.2 ± 0.05 µM
5 | CC[C@H](C)[C@@H]1NC(=O)[C@H](Cc2ccccc2)NC(=O)[C@@](C)(NC(=O)[C@@H](NC(=O)[C@H](CO)NC(=O)[C@]2(C)CCCC=CCCC[C@@](C)(NC(=O)[C@H](CCC(=O)O)NC(C)=O)C(=O)N[C@@H]([C@@H](C)CC)C(=O)N[C@@H](CC(N)=O)C(=O)N2)C2CCCCC2)CCCC=CCCC[C@@](C)(C(=O)N[C@@H](CO)C(=O)N[C@@H](CC(=O)O)C(=O)N[C@@H](CCC(=O)O)C(=O)N[C@@H](CC(C)C)C(=O)N[C@@H](CC(C)C)C(=O)N[C@@H](Cc2c[nH]cn2)C(=O)N[C@@H](CC(N)=O)C(=O)N[C@H](C(N)=O)C(C)C)NC(=O)[C@H](CCCNC(=N)N)NC1=O [Peptide 4ca-var3] (Ac-E[R5]IN[S5]S[Chg][S5]FIR[S5]SDELLHNV-NH2; staple 2-5, 8-12) |  | 91.4% | 91.4% | 
6 | CC[C@H](C)[C@@H]1NC(=O)[C@H](Cc2ccccc2)NC(=O)[C@@](C)(NC(=O)[C@H](CC(C)C)NC(=O)[C@H](CO)NC(=O)[C@]2(C)CCCC=CCCC[C@@](C)(NC(=O)[C@H](CCC(=O)O)NC(C)=O)C(=O)N[C@@H]([C@@H](C)CC)C(=O)N[C@@H](CC(N)=O)C(=O)N2)CCCC=CCCC[C@@](C)(C(=O)N[C@@H](CO)C(=O)N[C@@H](CC(=O)O)C(=O)N[C@@H](CCC(=O)O)C(=O)N[C@@H](CC2CCCCC2)C(=O)N[C@@H](CC(C)C)C(=O)N[C@@H](Cc2c[nH]cn2)C(=O)N[C@@H](CC(N)=O)C(=O)N[C@H](C(N)=O)C(C)C)NC(=O)[C@H](CCCNC(=N)N)NC1=O [Peptide 4ca-var7, E Xaa2 IN Xaa5 SL Xaa8 FIR Xaa12 SDE Xaa16LHNV] (Ac-E[R5]IN[S5]SL[S5]FIR[S5]SDE[Cha]LHNV-NH2; staple 2-5, 8-12) |  | 91.4% | 91.4% | 
7 | CC[C@H](C)[C@@H]1NC(=O)[C@H](Cc2ccccc2)NC(=O)[C@@](C)(NC(=O)[C@H](CC(C)(C)C)NC(=O)[C@H](CO)NC(=O)[C@]2(C)CCCC=CCCC[C@@](C)(NC(=O)[C@H](CCC(=O)O)NC(C)=O)C(=O)N[C@@H]([C@@H](C)CC)C(=O)N[C@@H](CC(N)=O)C(=O)N2)CCCC=CCCC[C@@](C)(C(=O)N[C@@H](CO)C(=O)N[C@@H](CC(=O)O)C(=O)N[C@@H](CCC(=O)O)C(=O)N[C@@H](CC(C)C)C(=O)N[C@@H](CC(C)C)C(=O)N[C@@H](Cc2c[nH]cn2)C(=O)N[C@@H](CC(N)=O)C(=O)N[C@H](C(N)=O)C(C)C)NC(=O)[C@H](CCCNC(=N)N)NC1=O [Peptide 4ca-var1] (Ac-E[R5]IN[S5]S[tBuAla][S5]FIR[S5]SDELLHNV-NH2; staple 2-5, 8-12) |  | 89.3% | 89.3% | 
